Several values for one entry are separate records, joined by “and”; a condition that tells them apart may be missing. Equal entries are not always repeated. Entries after “also recorded” stand apart in the source; their conditions may differ.
Assays:
[1] = test system: superficial bladder tumors (rat bladder carcinoma cell line); experiment: PDT with HAL and blue light in orthotopic rat bladder tumor model; format: in vivo; conditions: HAL 2 mg/ml (8 mM), 1 hour
Protocol: A rat bladder carcinoma cell line was used in these experiments to establish superficial bladder tumors in Female Fischer rats weighing 150-175 g as described in Francois, et al., J. Urol. 190(2), 2013, 731-736. The animals were used in the experiments 5 days after tumor cell inoculation.
Lyophilized HAL (in the form of Hexvix® powder) was dissolved in PBS to a final concentration of 2 mg/ml (8 mM). 0.5 ml of the solution was instilled into the rat bladder and was left in the bladder for about 1 hour. After evacuation of the HAL solution, 0.5 ml of PBS was instilled into the bladder and whole bladder irradiation with blue light at a fluence rate of 3.5 or 7.0 mW/cm^2 was performed using a 170 mW Modulight laser model ML 6500-405 delivering light at a wavelength of 401 nm, coupled to a fiber with a cylindrical diffuser (1×5 mm) model RD05/500/800 (Medlight, Ecublens, Switzerland) placed in a central position in the bladder. Rats received a blue light dose of 4.0 J/cm^2 (fluence rate 3.5 mW/cm^2) or 7.5 J/cm^2 (fluence rate 7.0 mW/cm^2)
For control, no Hexvix was instilled and only blue light irradiation was carried out at the aforementioned fluence rates/light doses.
The rats were sacrificed 48 hours after illumination by an overdose of pentobarbital. […]

[2] = test system: patient-derived bladder tumor; experiment: Establishing in vitro primary cell cultures from bladder tumors resected after HAL/blue light TUR; format: cell-based, human; conditions: HAL/blue light group; blue light 1.5 to 12.5 mW/cm^2, 0.2 to 15.0 J/cm^2
Protocol: A solution of HAL (Hexvix®) was instilled into the bladder of patients through a catheter and was left in the bladder for about 1 hour. If the patient could not retain the composition for about 1 hour, at least about 1 hour was allowed to pass from the instillation of Hexvix® to the start of exposing the inside of the bladder to light. After evacuation of Hexvix®, a commercially available blue-light cystoscope was inserted into the bladder and a TUR was carried out by exposing the inside of the bladder to white light for the visual inspection, subsequent blue light exposure for fluorescence detection of bladder cancer lesions, resection of the detected lesions under white light and monitoring of the completeness of the resection by use of blue light. Blue light was provided at a fluence rate of 1.5 to 12.5 mW/cm^2 and a light dose of 0.2 to 15.0 J/cm^2 […] at a fluence rate of 3.0 to 22.0 mW/cm^2 and a light dose of 0.4 to 26.5 J/cm^2.
The resected bladder tumors were processed according to methods known in the art and primary cell cultures were established from said patient-derived bladder tumor under appropriate conditions in culture medium. […]

[3] = test system: non-muscle invasive papillary bladder cancer (NMIBC); experiment: Phase III multicenter study, tumor recurrence after HAL blue light cystoscopy/TUR; format: in vivo, human; conditions: 9 months follow-up; for Tumor recurrence rate, All: HAL group (n = 271)
Protocol: A prospective, randomized, comparative, controlled phase III multicenter study was carried out in patients with non-muscle invasive papillary bladder cancer (NMIBC). The study population comprised 551 patients which were randomized into two groups (see below). The groups were similar in age, gender, race, bladder cancer history and prior intravesical therapy.
HAL group: 271 patients. The method of the invention was carried out as follows: A solution of HAL (Hexvix®) was instilled into the bladder of patients through a catheter and was left in the bladder for about 1 hour. If the patient could not retain the composition for about 1 hour, at least about 1 hour was allowed to pass from the instillation of Hexvix® to the start of exposing the inside of the bladder to light.
After evacuation of Hexvix®, cystoscopy was carried out with a commercially available cystoscope (blue and white light). The inside of the bladder was first exposed to white light and visually assessed, followed by exposure to blue light to detect cancerous lesions in the bladder. Transurethral resection (TUR) of the detected lesions was carried out under white light and completion of the resection was assessed under blue light.
White light group: 280 patients. Cystoscopy and TUR of bladder cancer under white light only, no HAL.
Patients from both groups with histologically confirmed Ta or T1 lesions were followed up by white light cystoscopy after 3, 6 and 9 months. All tumor recurrences during the 9 months follow-up period were histologically confirmed.
50 patients in the HAL group (18.5%) and 55 patients in the white light group (19.6%) received BCG treatment during the 9 months follow-up period. BCG (Bacillus Calmette-Guérin) is an immunotherapy agent for the treatment of bladder cancer. It is usually repeatedly instilled into the bladder.
Mitomycin is a chemotherapeutic agent for the treatment of bladder cancer. It may be instilled after TUR (single instillation) to e.g. prevent tumor cell seeding, i.e. re-attachment to the bladder wall of tumor cells which were dislocated during resection. Mitomycin was administered after TUR to 16 patients in the HAL group (5.9%) and to 20 patients in the white light group (7.1%).

bladder cancer [4] = conditions: patients with HAL-guided TUR prior to cystectomy, Kaplan-Meier, cited from earlier work
bladder cancer [5] = conditions: cited from earlier work
bladder cancer [6] = conditions: 5-ALA instilled, red light 633 nm, 30 and 50 J/cm^2; cited from earlier work
bladder cancer [7] = conditions: 5-ALA PDT after mitomycin, red laser light 635 nm, 18 mW/cm^2; cited from earlier work
bladder cancer [8] = conditions: cited from earlier work; remark: listed apart in the source
MIBC = conditions: neoadjuvant cisplatin-containing chemotherapy; cited from earlier work

SMILES: CCCCCCOC(=O)CCC(=O)CN [HAL, n-hexyl 5-amino-4-oxo-pentanoate]
- bladder histology 48 hours after illumination (PDT effect) ([1]; blue light 3.5 mW/cm^2, 4 J/cm^2, n=2, one animal (50%) each): no inflammation, persistent and chorion infiltrating tumors; also recorded: looked less compact and the superficial layer of said tumor was destroyed
- bladder histology 48 hours after illumination (PDT effect) ([1]; blue light 7.0 mW/cm^2, 7.5 J/cm^2, n=2): increased tissue thickness/inflammation (both signs of PDT effect) and disintegrating/less compact tumor tissue
- establishment of in vitro primary cell cultures from resected bladder tumors [2]: No in vitro primary cell cultures could be established
- Tumor recurrence rate, All ([3]; Table 1 and text): 42.7% and 47.2%
- Tumor recurrence rate, All ([3]; Table 2): 47.2%
- Tumor recurrence rate, Received BCG and/or mitomycin ([3]; HAL group): 41.5%
- Tumor recurrence rate, Received no BCG and/or mitomycin ([3]; HAL group): 49.0%
- Tumor recurrence rate, No BCG ([3]; HAL group, patients who did not receive BCG): 49.3%
- Tumor recurrence rate, Received BCG ([3]; HAL group, patients who received BCG): 38.0%
- 3-year overall survival (OS) (bladder cancer [4]; 56.6% with white light): 65.0%
- 3-year recurrence-free survival (RFS) (bladder cancer [4]; 58.2% with white light TUR alone): 69.8%
- patients tumor-free at 21 months (bladder cancer [5]; 2 of 17 patients): 11.8%
- patients tumor-free at 9 months (bladder cancer [5]; 4 of 17 patients): 23.5%
- patients with severe adverse effects (bladder cancer [5]; 4 patients of 17): 23.5%
- patients tumor-free at 6 months (bladder cancer [5]; 9 of 17 patients): 52.9%
- number of adverse effects reported (bladder cancer [5]; HAL 8 mM and 16 mM, white light 25-100 J/cm^2, 3 PDTs, 17 patients): 128
- patients with adverse effects (bladder cancer [5]; HAL 8 mM and 16 mM, white light, 3 PDTs): about 88%
- number of severe adverse effects reported (bladder cancer [5]; in 4 patients, 2 considered to relate to the PDT): 7

SMILES: NCC(=O)CCC(=O)O [5-ALA, 5-aminolevulinic acid]
- patients whose irritating urinary symptoms did not resolve before 2 weeks (bladder cancer [6]): 13%
- side effects in the form of irritating urinary symptoms, occurrence (bladder cancer [6]): occurred in all patients
- light dose considered the upper limit of tolerability in terms of side effects (bladder cancer [7]): 25 J/cm^2
- complaints of urinary frequency and urgency, occurrence (bladder cancer [8]; 5-ALA, white light 100 J/cm^2, 12 patients treated): all patients complained about urinary frequency and urgency
- patients whose symptoms persisted for 3 weeks (bladder cancer [8]; of 12 patients treated): 5 patients
- patients whose symptoms subsided within a week (bladder cancer [8]; of 12 patients treated): 7 patients

SMILES: N.N.[Cl][Pt][Cl] [cisplatin]
- absolute improvement in survival at 5 years (MIBC): 5%

Source: US11980772B2, “Method of photodynamic therapy (PDT) for bladder cancer” (priority 2015, dated 2024)
